Measurements: article PMC3534778 (European journal of pharmacology, 2012)
Values joined by “and” are separate entries in the source; they are usually repeats but may differ in a detail not shown here. Identical values can stand only once. “Also recorded” adds a separate entry of the source. Like-named read-outs stand apart in the source and are kept apart here.

Key:
[1] = molecular target: rat α3β4-nicotinic acetylcholine receptor (Rattus norvegicus, UniProt P04757+P12392); type: cell-based; conditions: read-out: IC50, inhibition of (S)-nicotine-induced whole-cell current
Chain of rat α3β4-nicotinic acetylcholine receptor (P04757 26-499): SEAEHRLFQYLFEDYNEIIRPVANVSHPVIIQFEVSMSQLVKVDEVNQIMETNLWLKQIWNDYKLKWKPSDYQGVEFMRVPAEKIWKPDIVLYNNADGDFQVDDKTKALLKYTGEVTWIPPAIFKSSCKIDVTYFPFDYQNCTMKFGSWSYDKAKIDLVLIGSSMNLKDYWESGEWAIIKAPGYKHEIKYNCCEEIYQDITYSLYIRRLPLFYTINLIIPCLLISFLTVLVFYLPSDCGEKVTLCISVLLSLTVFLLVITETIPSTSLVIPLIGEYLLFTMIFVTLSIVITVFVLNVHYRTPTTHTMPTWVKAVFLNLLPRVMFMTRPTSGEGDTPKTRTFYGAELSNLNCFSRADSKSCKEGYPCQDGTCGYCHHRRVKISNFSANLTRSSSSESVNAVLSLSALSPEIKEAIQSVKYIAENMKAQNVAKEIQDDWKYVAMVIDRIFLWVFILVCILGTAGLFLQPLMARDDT
Chain of rat α3β4-nicotinic acetylcholine receptor (P12392 21-495): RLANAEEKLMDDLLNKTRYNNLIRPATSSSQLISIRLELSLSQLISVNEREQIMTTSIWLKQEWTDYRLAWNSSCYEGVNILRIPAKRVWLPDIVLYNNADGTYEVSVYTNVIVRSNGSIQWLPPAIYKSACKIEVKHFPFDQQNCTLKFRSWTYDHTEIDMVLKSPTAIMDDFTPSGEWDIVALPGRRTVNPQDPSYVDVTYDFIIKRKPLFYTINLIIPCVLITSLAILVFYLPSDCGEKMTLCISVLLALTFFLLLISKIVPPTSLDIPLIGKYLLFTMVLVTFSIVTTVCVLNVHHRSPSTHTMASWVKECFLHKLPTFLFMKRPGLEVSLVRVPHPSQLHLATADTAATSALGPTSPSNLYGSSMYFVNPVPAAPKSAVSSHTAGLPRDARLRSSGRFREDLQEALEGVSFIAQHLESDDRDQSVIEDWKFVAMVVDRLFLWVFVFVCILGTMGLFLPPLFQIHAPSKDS

[2] = molecular target: NMDA receptor; type: binding, rat
[3] = molecular target: rat α7-nicotinic acetylcholine receptor (Rattus norvegicus, UniProt Q05941); type: cell-based
Chain of rat α7-nicotinic acetylcholine receptor (Q05941 23-502): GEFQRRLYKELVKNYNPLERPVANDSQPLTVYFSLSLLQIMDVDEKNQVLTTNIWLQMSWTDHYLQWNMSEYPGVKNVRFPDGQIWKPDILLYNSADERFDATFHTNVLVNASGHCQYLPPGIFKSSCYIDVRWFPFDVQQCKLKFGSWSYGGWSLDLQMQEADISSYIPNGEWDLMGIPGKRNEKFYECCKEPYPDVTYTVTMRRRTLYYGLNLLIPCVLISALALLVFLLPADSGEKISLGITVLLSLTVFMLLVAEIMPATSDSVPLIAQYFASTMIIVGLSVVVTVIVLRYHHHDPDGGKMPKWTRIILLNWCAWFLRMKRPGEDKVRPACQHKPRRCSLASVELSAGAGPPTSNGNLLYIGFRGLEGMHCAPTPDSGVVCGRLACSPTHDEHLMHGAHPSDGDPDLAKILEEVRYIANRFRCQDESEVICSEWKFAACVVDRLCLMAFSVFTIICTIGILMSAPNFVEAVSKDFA

[4] = molecular target: α7-nicotinic acetylcholine receptor (Rattus norvegicus, UniProt Q05941); type: binding
Chain of α7-nicotinic acetylcholine receptor (Q05941 23-502): as above

[5] = molecular target: α4β2-nicotinic acetylcholine receptor (Homo sapiens, UniProt P17787+P43681); assay: Acetylcholine-evoked currents in α4β2-nicotinic acetylcholine receptor; type: cell-based
Chain of α4β2-nicotinic acetylcholine receptor (P43681 29-627 limits assumed): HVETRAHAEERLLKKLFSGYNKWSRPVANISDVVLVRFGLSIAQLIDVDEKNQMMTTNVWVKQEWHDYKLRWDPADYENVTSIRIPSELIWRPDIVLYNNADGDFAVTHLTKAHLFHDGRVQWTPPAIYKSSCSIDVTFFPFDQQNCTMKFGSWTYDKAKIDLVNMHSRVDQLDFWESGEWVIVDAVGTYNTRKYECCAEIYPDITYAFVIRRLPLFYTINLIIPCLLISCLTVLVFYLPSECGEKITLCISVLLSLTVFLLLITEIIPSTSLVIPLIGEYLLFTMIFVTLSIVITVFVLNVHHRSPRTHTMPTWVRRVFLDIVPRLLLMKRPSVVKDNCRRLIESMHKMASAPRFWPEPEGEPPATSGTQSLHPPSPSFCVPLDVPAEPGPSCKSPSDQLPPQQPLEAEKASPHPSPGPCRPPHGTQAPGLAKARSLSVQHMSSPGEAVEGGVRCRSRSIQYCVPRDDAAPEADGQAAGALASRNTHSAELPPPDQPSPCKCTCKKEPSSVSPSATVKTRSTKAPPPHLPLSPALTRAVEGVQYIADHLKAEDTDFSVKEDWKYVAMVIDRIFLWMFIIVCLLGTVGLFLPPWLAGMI
Chain of α4β2-nicotinic acetylcholine receptor (P17787 26-502 limits assumed): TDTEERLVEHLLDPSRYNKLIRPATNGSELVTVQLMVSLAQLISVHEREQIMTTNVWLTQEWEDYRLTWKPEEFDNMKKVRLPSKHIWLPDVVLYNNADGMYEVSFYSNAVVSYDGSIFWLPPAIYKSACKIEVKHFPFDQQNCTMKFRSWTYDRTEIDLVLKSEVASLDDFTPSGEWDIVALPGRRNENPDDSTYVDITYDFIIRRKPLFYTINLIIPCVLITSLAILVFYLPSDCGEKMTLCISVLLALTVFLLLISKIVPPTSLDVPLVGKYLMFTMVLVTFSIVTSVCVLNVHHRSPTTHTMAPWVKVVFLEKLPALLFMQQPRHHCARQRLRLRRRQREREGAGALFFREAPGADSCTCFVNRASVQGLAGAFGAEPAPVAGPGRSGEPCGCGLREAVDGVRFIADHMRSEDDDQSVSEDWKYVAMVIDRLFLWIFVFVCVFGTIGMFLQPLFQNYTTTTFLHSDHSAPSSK

[6] = human, in vivo; cited from earlier work

Row | SMILES | IC50 [1] | Ki [2] | Mean current evoked by 280 μM acetylcholine, normalized to acetylcholine alone [3] | Displacement of [3H]-epibatidine [4] | Displacement of [125I]-α-bungarotoxin [4] | further results
1 | N[C@@]1(c2ccccc2Cl)CCC[C@@H](O)C1=O [(2R,6R)-hydroxynorketamine] | > 200 µM | > 100 µM | 0.354 and 0.489 |  |  | 
2 | NC1(c2ccccc2Cl)CCCCC1=O (racemic) [(R,S)-norketamine] | 9.1 µM |  |  |  |  | Inhibition of acetylcholine-induced current ([3]; 100 nM compound, 280 μM acetylcholine): ~ 45%; Mean current evoked by 280 μM acetylcholine, normalized to acetylcholine alone ([3]; 100 nM compound, −80 mV, n = 4, fraction of current remaining): 0.548; Mean current evoked by 280 μM acetylcholine, normalized to acetylcholine alone ([3]; 1000 nM compound, −80 mV, n = 4, fraction of current remaining): 0.287
3 | NC1(c2ccccc2Cl)CCC=CC1=O (racemic) [(R,S)-dehydronorketamine] | > 200 µM |  | 0.407 and 0.205 | did not competitively displace | did not competitively displace | Current activation (agonist effect) [3]: No measurable effect; Hill coefficient nH [3]: 0.66 ± 0.05; Inhibition of acetylcholine-induced current [3]: ~ 60%; Voltage dependence of the inhibitory effect [3]: voltage-independent; Inhibition of ACh-induced whole-cell current ([3]; 0.03 µM): 45%; IC50 ([3]; read-out: IC50, inhibition of acetylcholine-evoked current): 0.055 ± 0.006 µM; Effect on acetylcholine-evoked currents [5]: no effect
4 | N[C@]1(c2ccccc2Cl)CCCCC1=O [(S)-norKetamine, (S)-norketamine] |  | 2.25 ± 0.22 µM |  |  |  | 
5 | CNC1(c2ccccc2Cl)CCCCC1=O (racemic) [(R,S)-Ketamine, reference compound] | 3.1 µM |  |  |  |  | Patients reporting a positive response [6]: 41%; Response rate [6]: 30%; Effect on acetylcholine-induced current [3]: inactive; also recorded: no observable effect
6 | N[C@]1(c2ccccc2Cl)CCC=CC1=O [(S)-Dehydronorketamine, (S)-dehydronorketamine] |  | 39 µM |  | not displaced | did not displace | 
7 | N[C@]1(c2ccccc2Cl)CCC[C@H](O)C1=O [(2S,6S)-hydroxynorketamine] | > 200 µM | 21 µM and 21.2 µM | 0.461 and 0.361 |  |  | 
8 | N[C@@]1(c2ccccc2Cl)CCC=CC1=O [(R)-Dedhydronorketamine, (R)-dehydronorketamine] |  | 74.5 µM |  | not displaced | did not displace | 
9 | N[C@@]1(c2ccccc2Cl)CCCCC1=O [(R)-norKetamine, (R)-norketamine] |  | 26.5 µM |  |  |  | 
